The results in this text go back to ChEMBL document CHEMBL1142000, “(R)-2-(4-Phenylbutyl)dihydrobenzofuran derivatives as melatoninergic agents” (Bioorg Med Chem Lett, 2005).

In general, Ki refers to a measure of affinity in units of concentration, obtained from inhibition or displacement. A low value points to a stronger hold on the target.

Experiment [1] has as its target T1, Melatonin receptor type 1B (Homo sapiens, UniProt P49286).
T1 sequence (P49286 whole entry): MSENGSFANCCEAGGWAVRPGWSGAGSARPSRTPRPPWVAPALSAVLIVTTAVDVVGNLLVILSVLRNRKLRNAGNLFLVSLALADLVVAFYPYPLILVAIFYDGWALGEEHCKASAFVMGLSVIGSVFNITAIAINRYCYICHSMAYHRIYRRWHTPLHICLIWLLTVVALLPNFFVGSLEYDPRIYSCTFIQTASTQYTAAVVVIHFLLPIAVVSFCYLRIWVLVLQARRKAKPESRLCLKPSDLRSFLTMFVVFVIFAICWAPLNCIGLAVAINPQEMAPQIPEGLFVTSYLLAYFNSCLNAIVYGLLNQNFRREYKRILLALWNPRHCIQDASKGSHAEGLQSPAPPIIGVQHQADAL
Nature of the experiment: Binding affinity against Melatonin receptor type 1B stably expressed in NIH3T3 cells using 2-[125I]iodomelatonin. It is filed as cell-based.

For experiment [2], the target named is Melatonin receptor type 1A (Homo sapiens, UniProt P48039). Briefly: Binding affinity against Melatonin receptor type 1A stably expressed in NIH3T3 cells using 2-[125I]iodomelatonin. It is filed as cell-based.
Melatonin receptor type 1A, sequence (P48039 whole entry): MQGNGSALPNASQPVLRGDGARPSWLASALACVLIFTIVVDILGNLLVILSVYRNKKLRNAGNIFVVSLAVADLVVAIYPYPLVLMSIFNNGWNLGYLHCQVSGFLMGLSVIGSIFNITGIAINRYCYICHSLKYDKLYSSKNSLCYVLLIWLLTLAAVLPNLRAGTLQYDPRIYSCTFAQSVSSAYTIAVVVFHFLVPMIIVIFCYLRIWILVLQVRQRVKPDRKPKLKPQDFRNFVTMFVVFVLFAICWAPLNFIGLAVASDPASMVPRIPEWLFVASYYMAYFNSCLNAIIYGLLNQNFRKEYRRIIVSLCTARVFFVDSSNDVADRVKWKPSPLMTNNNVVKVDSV

Turning to `CCC(=O)NCCCc1cccc2c1C[C@@H](CCCCc1ccccc1)O2`, the inhibition constant (Ki) is 20 nM in experiment [1] and 1 nM in experiment [2].

Turning to `CCNC(=O)NCCCc1cccc2c1C[C@@H](CCCCc1ccccc1)O2`, the Ki in experiment [1] was 40 nM; in experiment [2], 9 nM.

With `CCNC(=O)NC[C@@H]1C[C@H]1c1c(Cl)ccc2c1C[C@@H](CCCCc1ccccc1)O2`, the Ki in experiment [1] was determined as 90 nM; in experiment [2], 60 nM.

For `CC(C)C(=O)NCCCc1cccc2c1C[C@@H](CCCCc1ccccc1)O2`, the Ki was determined as 40 nM in experiment [1] and 4 nM in experiment [2].

In the case of `O=C(NCCCc1cccc2c1C[C@@H](CCCCc1ccccc1)O2)C1CC1`, the Ki in experiment [1] is 30 nM; in experiment [2] it was 2 nM.

With `CC(=O)NC[C@@H]1C[C@H]1c1cccc2c1C[C@@H](CCCCc1ccccc1)O2`, the Ki is 2 nM in experiment [1] and 1 nM in experiment [2].

Consider `CCNC(=O)NC[C@@H]1C[C@H]1c1cccc2c1C[C@@H](CCCCc1ccccc1)O2`, for which the values for the Ki in experiment [1] and in experiment [2] were 40 nM and 9 nM, respectively.

As to `O=C(NC[C@@H]1C[C@H]1c1cccc2c1C[C@@H](CCCCc1ccccc1)O2)C1CC1`, the Ki is 5 nM in experiment [1] and 1 nM in experiment [2].

Take `CC(C)C(=O)NC[C@@H]1C[C@H]1c1cccc2c1C[C@@H](CCCCc1ccccc1)O2`: the values for the Ki in experiment [1] and in experiment [2] were 90 nM and 6 nM, respectively.

As for `CC(=O)NCCCc1cccc2c1C[C@@H](CCCCc1ccccc1)O2`, the Ki in experiment [1] turned out to be 8 nM; in experiment [2], 4 nM.

On to `CCCC(=O)NC[C@@H]1C[C@H]1c1cccc2c1C[C@@H](CCCCc1ccccc1)O2`, for which the Ki in experiment [1] and in experiment [2] was 2 nM in each case.

Turning to `CCC(=O)NC[C@@H]1C[C@H]1c1cccc2c1C[C@@H](CCCCc1ccccc1)O2`, the Ki was 2 nM in experiment [1] and 1 nM in experiment [2].

For the compound `CCCC(=O)NCCCc1cccc2c1C[C@@H](CCCCc1ccccc1)O2`, the Ki came to 30 nM in experiment [1] and 2 nM in experiment [2].
